This is an account of results in ChEMBL document CHEMBL4842346, “Improving the metabolic stability of antifungal compounds based on a scaffold hopping strategy: Design, synthesis, and structure-activity relationship studies of dihydrooxazole derivatives” (Eur J Med Chem, 2021).

Values after ≈ are worked out from the molar mass of the structure shown.

What all share (type): functional
Experiment [1] relates to Pichia kudriavzevii. In words: Antifungal activity against Candida krusei GIM2.1 assessed as inhibition of fungal growth by NCCLS protocol based method.
Experiment [2] deals with Aspergillus fumigatus. As to the kind of experiment: Antifungal activity against Aspergillus fumigatus CGMCC3.7795 assessed as inhibition of fungal growth by NCCLS protocol based method.
In experiment [3] the test system is Candida parapsilosis. In words: Antifungal activity against Candida parapsilosis GIM2.190 assessed as inhibition of fungal growth by NCCLS protocol based method. The following applies: Lodderomyces parapsilosis.
Experiment [4] has as its system Candida tropicalis. In words: Antifungal activity against Candida tropicalis GIM2.183 assessed as inhibition of fungal growth by NCCLS protocol based method.
Experiment [5] deals with Candida albicans. As to the kind of experiment: Antifungal activity against Candida albicans SC5314 assessed as inhibition of fungal growth by NCCLS protocol based method.
The test system of experiment [6] is Candida albicans. In words: Antifungal activity against Candida albicans GIM2.194 assessed as inhibition of fungal growth by NCCLS protocol based method.
Experiment [7] relates to Cryptococcus neoformans. In words: Antifungal activity against Cryptococcus neoformans GIM2.209 assessed as inhibition of fungal growth by NCCLS protocol based method.
Experiment [8] concerns Cryptococcus neoformans. In words: Antifungal activity against Cryptococcus neoformans CGMCC2.3161 assessed as inhibition of fungal growth by NCCLS protocol based method.
For experiment [9], the system named is Candida albicans. As to the kind of experiment: Antifungal activity against Candida albicans CPCC400523 assessed as inhibition of fungal growth by NCCLS protocol based method.
Experiment [10] relates to Candida albicans. In words: Antifungal activity against fluconazole resistant Candida albicans CaR assessed as inhibition of fungal growth by NCCLS protocol based method.
Experiment [11] deals with Candida albicans. In words: Antifungal activity against fluconazole and itraconazole resistant Candida albicans 17# assessed as inhibition of fungal growth by NCCLS protocol based method.

As to `N#Cc1ccc(-c2ccc(C3=NC(Cn4cncn4)(c4ccccc4)CO3)cc2)cc1` (stereo not given), the MIC (usually the least concentration at which growth counts as inhibited) in experiment [1] is more than 64 µg/mL; in [2], more than 64 µg/mL; in experiment [3] it was more than 64 µg/mL; in [4], more than 16 µg/mL; in [5], more than 16 µg/mL; in experiment [6], more than 16 µg/mL.
`c1ccc(-c2ccc(C3=NC(Cn4ccnc4)C(c4ccccc4)O3)cc2)cc1` (stereo not given): the MIC in experiment [2], in experiment [4], in experiment [7], in experiment [5] and in [6] was more than 64 µg/mL each time.
In the case of `FC(F)(F)Oc1ccc(-c2ccc(C3=NC(Cn4cncn4)(c4ccccc4)CO3)cc2)cc1` (stereo not given), the MIC in experiment [1] was more than 64 µg/mL; in experiment [2], more than 64 µg/mL; in experiment [3] it was more than 64 µg/mL; in experiment [4] it was more than 16 µg/mL; in experiment [5], more than 16 µg/mL; in experiment [6], more than 16 µg/mL.
For `Fc1cc(F)cc(C2(Cn3cncn3)COC(c3ccc(-c4ccccc4F)cc3)=N2)c1` (stereo not given), the minimum inhibitory concentration (MIC) in experiment [1] was more than 64 µg/mL; in experiment [2], more than 64 µg/mL; in experiment [3] it was more than 64 µg/mL; in experiment [4], more than 16 µg/mL; in experiment [5], 0.06 µg/mL (≈ 0.138 µM); in [6], more than 16 µg/mL.
For `c1ccc(-c2ccc(C3=NC(Cn4cnnn4)(c4ccccc4)CO3)cc2)cc1` (stereo not given), the MIC was more than 64 µg/mL in experiment [1]; more than 64 µg/mL in [2]; more than 64 µg/mL in experiment [3]; more than 16 µg/mL in [4]; more than 16 µg/mL in [5]; more than 16 µg/mL in experiment [6].
Turning to `Fc1cccc(-c2ccc(C3=NC(Cn4cncn4)(c4ccccc4)CO3)cc2)c1` (stereo not given), the MIC in [1] was less than 0.125 µg/mL; in [2], more than 64 µg/mL; in [3], 16 µg/mL (≈ 40.2 µM); in experiment [4], 0.06 µg/mL (≈ 0.151 µM); in [5] it was less than 0.03 µg/mL; in experiment [6], less than 0.03 µg/mL.
`O=C(c1ccc(-c2ccccc2)cc1)N1CCC[C@@H]1Cn1ccnc1`: the MIC in experiment [8], in experiment [2], in [9] and in experiment [5] was more than 64 µg/mL each time.
With `Fc1ccccc1-c1ccc(C2=NC(Cn3cncn3)(c3ccccc3)CO2)cc1` (stereo not given), the minimum inhibitory concentration (MIC) was 0.5 µg/mL (≈ 1.25 µM) in experiment [1]; more than 64 µg/mL in experiment [2]; 16 µg/mL (≈ 40.2 µM) in [3]; 0.06 µg/mL (≈ 0.151 µM) in [4]; less than 0.03 µg/mL in experiment [5]; less than 0.03 µg/mL in experiment [6].
With `Fc1ccc(-c2ccc(C3=NC(Cn4cncn4)(c4ccccc4)CO3)cc2)cc1` (stereo not given), the minimum inhibitory concentration (MIC) in experiment [1] was more than 64 µg/mL; in experiment [2], more than 64 µg/mL; in experiment [3], more than 64 µg/mL; in experiment [4] it was 8 µg/mL (≈ 20.1 µM); in experiment [5] it was 0.25 µg/mL (≈ 0.627 µM); in experiment [6], more than 16 µg/mL.
Regarding `FC(F)(F)c1ccc(-c2ccc(C3=NC(Cn4cncn4)(c4ccccc4)CO3)cc2)cc1` (stereo not given), the minimal inhibitory concentration (MIC) was more than 64 µg/mL in experiment [1]; more than 64 µg/mL in experiment [2]; more than 64 µg/mL in [3]; more than 16 µg/mL in experiment [4]; more than 16 µg/mL in experiment [5]; more than 16 µg/mL in experiment [6].
For `c1ccc(-c2ccc(C3=NC(Cn4cncn4)(c4ccccc4)CO3)cc2)cc1` (stereo not given), the minimum inhibitory concentration (MIC) was 0.25 µg/mL (≈ 0.657 µM) in experiment [1]; 2 µg/mL (≈ 5.26 µM) in [2]; 0.25 µg/mL (≈ 0.657 µM) in experiment [3]; 0.06 µg/mL (≈ 0.158 µM) in [4]; less than 0.03 µg/mL in [5]; less than 0.03 µg/mL in experiment [6].
For `CC(C)(O)C(Cn1ccnc1)NC(=O)c1ccc(-c2ccccc2)cc1` (stereo not given), the MIC in experiment [8] is more than 64 µg/mL; in [2], more than 64 µg/mL; in experiment [9] it was more than 64 µg/mL; in [5] it was 8 µg/mL (≈ 22.9 µM).
Consider `Fc1cccc(-c2ccc(C3=NC(Cn4cncn4)(c4cccc(F)c4)CO3)cc2)c1` (stereo not given), for which the MIC in experiment [10] was more than 64 µg/mL; in experiment [1], more than 64 µg/mL; in experiment [2], more than 64 µg/mL; in experiment [3] it was more than 64 µg/mL; in experiment [4], 0.25 µg/mL (≈ 0.6 µM); in [11], more than 64 µg/mL. The MIC in experiment [5] and in experiment [6] was 0.06 µg/mL (≈ 0.144 µM) each time.
Regarding `Fc1cccc(-c2ccc(C3=NC(Cn4cncn4)(c4cc(F)cc(F)c4)CO3)cc2)c1` (stereo not given), the MIC was more than 64 µg/mL in experiment [1]; more than 64 µg/mL in experiment [2]; more than 64 µg/mL in experiment [3]; more than 16 µg/mL in [4]; 0.06 µg/mL (≈ 0.138 µM) in experiment [5]; more than 16 µg/mL in [6].
With `c1ccc(-c2ccc(C3=N[C@H](Cn4ccnc4)CO3)cc2)cc1`, the MIC in experiment [8], in experiment [2], in experiment [9] and in experiment [5] was more than 64 µg/mL in each case.
`O=C(c1ccccc1)C1(Cn2ccnc2)COC(c2ccc(-c3ccccc3)cc2)=N1` (stereo not given): the MIC in [2] is more than 64 µg/mL; in experiment [4], more than 64 µg/mL; in experiment [7] it was more than 64 µg/mL; in experiment [5], 0.5 µg/mL (≈ 1.23 µM); in experiment [6], more than 64 µg/mL.
